Patent US20240277637A1, “CAPSAICIN DERIVATIVES IN THE TREATMENT OF IDIOPATHIC PULMONARY FIBROSIS” (aXichem AB, priority 2021, published 2024)

Columns and labels:
[1] = test system: human corneal epithelial cells; assay: Clonogenic cell survival assay, corneal epithelial cells with PDGF-AB (Example 1); assay type: cell-based; conditions: 10 ng/ml PDGF-AB, 14 days
Experimental: (§1) Primary isolated human corneal epithelial cells; Normal, Human cells (ATCC® PCS-700-010™) were maintained in culture at 37° C. with 5% CO2 and 95% humidity in serum reduced (5% fetal calf serum) modified promocell media (MPM) supplemented with 4 ng/ml fibronectin (FN), 2 ng/ml human recombinant vascular endothelial growth factor (VEGF) and 4 ng/ml basic fibroblast growth factor (bFGF).
A clonogenic cell survival assay determines the ability of a cell to proliferate indefinitely. The effects of phenylcapsaicin (2) on clonogenic survival of corneal epithelial cells was investigated by plating the cells with increasing numbers (102 to 5×104) in 25 cm^2 flasks. SU9518, a known inhibitor PDGF that has shown the ability to reduce radiation-induced fibroblast and endothelial cell activation, was used as the positive control. The cells were incubated with 0-10 μM of phenylcapsaicin and SU9518 separately in the presence of 10 ng/ml PDGF-AB. The flasks were returned to the incubator for 14 days, after which they were stained with crystal violet. The colonies were counted, and the surviving

[2] = test system: human corneal epithelial cells; assay: Proliferation assay, VEGF+bFGF-stimulated corneal epithelial proliferation (Example 1); assay type: cell-based; conditions: Corneal epithelial cell, highest dose tested 10 uM, 72 hours, read-out: IC50, VEGF+bFGF-induced proliferation
Experimental: as §1
Corneal cells were harvested by trypsinization at 37° C. and neutralized with trypsin-neutralizing solution. A suspension of 50,000 cells in MPM/DMEM was added to 25 ml flasks. The cells were incubated with phenylcapsaicin or SU9518 for 1 hour in cytokine-free medium at standard conditions and incubated for another 72 hours in the presence of final mediums (either with 10 ng/ml PDGF-AB+4 ng/ml FN, or with 2 ng/ml VEGF+4 ng/ml bFGF+4 ng/ml FN). The cells were then dispersed in trypsin, resuspended, and counted in a coulter counter.

[3] = test system: human bronchial epithelial cells; assay: Clonogenic cell survival assay, bronchial epithelial cells with PDGF-AB (Example 2); assay type: cell-based
Experimental: (§2) Primary isolated human bronchial epithelial cells (NHBE) (Normal, Human (ATCC® BEAS-2B™)) were cultured up to passage 6. […].
A clonogenic cell survival assay determines the ability of a cell to proliferate indefinitely. The effects of phenylcapsaicin on clonogenic survival of bronchial epithelial cells was investigated by plating the cells with increasing numbers (10^2 to 5×10^4) in 25 cm^2 flasks. SU9518, a known inhibitor for PDGF which has shown the ability to reduce radiation-induced fibroblast and endothelial cell activation, was used as the positive control. The cells were incubated with 0-10 μM of phenylcapsaicin and SU9518 separately in the presence of 10 ng/ml PDGF-AB. The flasks were returned to the incubator for 14 days, after which they were stained with crystal violet. The colonies were counted, and the surviving percentage was determined for clonogenic survival after correcting for plating efficiency.

[4] = test system: human bronchial epithelial cells; assay: Proliferation assay, PDGF-stimulated bronchial epithelial proliferation (Example 2); assay type: cell-based; conditions: for IC50: Homo sapiens, Epithelial cell, 10 ng/ml PDGF, 72 hours
Experimental: as §2
(§3) Bronchial cells were harvested by trypsinisation at 37° C. and neutralised with trypsin-neutralising solution. A suspension of 50,000 cells in MPM/DMEM was added to 25 ml flasks. The cells were incubated with phenylcapsaicin or SU9518 for 1 hour in cytokine-free medium at standard conditions and incubated for another 72 hours in the presence of final mediums (either with 10 ng/ml PDGF-AB+4 ng/ml FN, or with 2 ng/ml VEGF+4 ng/ml bFGF+4 ng/ml FN). The cells were then dispersed in trypsin, resuspended, and counted in a coulter counter.

[5] = test system: human bronchial epithelial cells; assay: Proliferation assay, VEGF+bFGF-stimulated bronchial epithelial proliferation (Example 2); assay type: cell-based; conditions: 72 hours
Experimental: as §2, §3

[6] = test system: human bronchial epithelial cells; assay: Clonogenic cell survival assay, bronchial epithelial cells with PDGF-AB (Example 3); assay type: cell-based; conditions: 10 ng/ml PDGF-AB, 14 days
Experimental: (§4) Primary isolated human bronchial epithelial cells (NHBE) were used in this assay sourced from the American Tissue Culture Collection (Normal, Human (ATCC® BEAS-2B™)) and were cultured up to passage 6. […].
A clonogenic cell survival assay determines the ability of a cell to proliferate indefinitely. Cells were plated with increasing numbers (102 to 5×10^4) in 25 cm^2 flasks. SU9518, SU9518, a known inhibitor PDGF that has shown the ability to reduce radiation-induced fibroblast and endothelial cell activation, and phenylcapsaicin were used as positive controls. The cells were incubated with 0-10 μM (3% DMSO aqueous) of phenylcapsaicin, SU9518, and compounds 1 and 3-7 separately in the presence of 10 ng/ml PDGF-AB (Sigma Aldrich). The flasks were returned to the incubator for 14 days, after which they were stained with crystal violet (Sigma Aldrich). The colonies were counted and the surviving percentage was determined for clonogenic survival after correcting for plating efficiency.

[7] = test system: human bronchial epithelial cells; assay: Clonogenic cell survival assay, bronchial epithelial cells with PDGF-AB (Example 4); assay type: cell-based; conditions: 10 ng/ml PDGF-AB, 14 days
Experimental: as §4
The effects of Phenylcapsaicin (2) on clonogenic survival of bronchial epithelial cells, by plating the cells with increasing numbers (102 to 5×104) in 25 cm^2 flasks were investigated. SU9518* and Phenylcapsaicin were used as positive controls. The cells were incubated with 0-10 μM (3% DMSO aqueous) of Phenylcapsaicin, SU9518, and compounds 8-12 separately in the presence of 10 ng/ml PDGF-AB (Sigma Aldrich). The flasks were returned to the incubator for 14 days, after which they were stained with crystal violet (Sigma Aldrich). The colonies were counted and the surviving percentage was determined for clonogenic survival after correcting for plating efficiency. The synthetic analogs were all calculated at 100% purity for molar concentrations.

[8] = Acute inhalation toxicity test on rats; conditions: both sexes, rat, in vivo, inhaled; single exposure via inhalation, nose-only; male and female rats; based on active substance
Source text: These findings strongly imply that phenylcapsaicin may be a useful drug against IPF, slowing down or reducing scarring of the lung tissue. Such a reduction in scarring may lead to a delayed progression of IPF and/or ease the symptoms of IPF, such as respiratory difficulty and/or coughing. […] This finding is an indication that the compounds of the invention will have a low toxicity in use against IPF using inhalation as the route of administration.

[9] = Rage Paulsen et al. 2018; cited from earlier work

COc1cc(CNC(=O)CCCCC#Cc2ccccc2)ccc1O [Compound 2, N-(4-hydroxy-3-methoxybenzyl)-7-phenylhept-6-ynamide]
effect on clonogenic survival ([1]; 0-10 μM): dose-dependant inhibitory effect on survival
surviving fraction of epithelial cells ([1]; 5 μM): 27%
IC50 [2]: > 10 µM
effect on clonogenic survival ([3]; 0-10 μM, 10 ng/ml PDGF-AB, 14 days): dose-dependent inhibitory effect on survival
surviving fraction of epithelial cells ([3]; 5 μM, 10 ng/ml PDGF-AB, 14 days): 35%
survival rate of the cells ([3]; 10 μM, after 14 days, in the presence of PDGF): 35%
IC50 ([4]; read-out: IC50, PDGF-induced epithelial proliferation): ~1000 nM
IC50 ([4]; read-out: IC50, PDGF-induced proliferation): ~2000 nM
selectivity for PDGF pathway ([4]; PDGF- versus VEGF+bFGF-induced proliferation, bronchial cells): work selectively on the PDGF pathway, although at a lower selectivity than in corneal cells
IC75, epithelial proliferation stimulated by VEGF and bFGF [5]: ~5 µM
IC50 ([5]; Homo sapiens, Epithelial cell, highest dose tested 10 uM, read-out: IC50, VEGF+bFGF-induced proliferation): > 10 µM
effect on clonogenic survival / PDGF inhibition (words) ([6]; 0-10 μM): reduction in the survival fraction of endothelial cells in a dose dependent manner
Clonogenic Survival Assay (percent) ([6]; 0.10 μM): 83%
Clonogenic Survival Assay (percent) ([6]; 0.10 μM, listed as phenylcapsaicin): 83%
Clonogenic Survival Assay (percent) ([6]; 0.50 μM): 59%
Clonogenic Survival Assay (percent) ([6]; 1.00 μM): 41%
Clonogenic Survival Assay (percent) ([6]; 2.00 μM): 35%
Clonogenic Survival Assay (percent) ([6]; 5.00 μM): 35%
Clonogenic Survival Assay (percent) ([6]; 10.00 μM): 32%
Clonogenic Survival Assay (percent) ([6]; 10.00 μM, listed as phenylcapsaicin): 32%
effect on clonogenic survival / PDGF inhibition (words) ([7]; 0-10 μM): reduction in the survival fraction of endothelial cells in a dose dependent manner
Clonogenic Survival Assay (percent) ([7]; 0.10 uM): 83%
Clonogenic Survival Assay (percent) ([7]; 0.50 uM): 59%
Clonogenic Survival Assay (percent) ([7]; 1.00 uM): 41%
Clonogenic Survival Assay (percent) ([7]; 2.00 uM): 35%
Clonogenic Survival Assay (percent) ([7]; 5.00 uM): 35%
Clonogenic Survival Assay (percent) ([7]; 10.00 uM): 32%
LC50 [8]: > 5.65 µg/mL
gene mutations and chromosomal damage [9]: safe with regards to gene mutations and chromosomal damage
systemic toxicity [9]: low systemic toxicity
